Where a name gives a salt, the structure may show the parent alone.
Columns and labels:
[1] = target: T1, human recombinant GABAAR containing α5β3γ2 subunits (benzodiazepine site) (Homo sapiens, UniProt P18507+P31644); experiment: In vitro radioligand binding assay (α5-GABAAR Ki); conditions: inhibition of [3H]Ro15-1788 binding, membranes of L(tk−) cells expressing human α5β3γ2; read-out: α5-GABAAR Ki
T1 construct: expressed in transfected cells; host or cells: mouse L(tk−) cells, dexamethasone-inducible vector pMSGneo
Outline: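 Membranes from mouse L(tk^−) cells stably expressing human α5β3γ2 GABAAR incubated 1 h at 4° C with 4 nM [^3H]Ro15-1788 and test compound; nonspecific binding with 1 μM TP003. Filter-bound radioactivity counted; Ki from IC50 by Cheng-Prusoff using measured Kd.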

[2] = target: T2, human α5β3γ2 GABAARs in mouse L(tk−) cells (Homo sapiens, UniProt P18507+P31644); experiment: In vitro electrophysiological recording assay (α5-GABAAR relative efficacy), QPatch; format: cell-based; conditions: GABA EC10-20
T2 construct: expressed in transfected cells; host or cells: mouse L(tk−) cells, dexamethasone-inducible vector pMSGneo
Outline: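 Whole-cell QPatch recordings at 20-22° C, −65 mV holding, in dexamethasone-induced (1 μM, 24 h) L(tk−) cells. Compound pre-applied ≥1 min, then co-applied with GABA EC10-20; percentage change in leak-corrected peak current, taken at ≥100× Ki, normalised to DMCM efficacy; 0.1% DMSO final.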

[3] = target: T3, human α5β3γ2L GABAA receptors in HEK293 cells (Homo sapiens, UniProt P18507+P31644); experiment: In vitro electrophysiological recording assay (α5-GABAAR relative efficacy), SyncroPatch; format: cell-based; conditions: Conc 0.1 μM; GABA EC10-20
T3 construct: expressed in transfected cells
Outline: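 HEK293 cells stably expressing the receptor, automated whole-cell patch clamp at −80 mV, room temperature (20-22° C). Compound pre-incubated 1-2 min, then co-applied with GABA EC10-20; % change in peak current vs GABA alone (leak-subtracted). Tested generally at ≥100× Ki and normalised to DMCM efficacy as relative efficacy.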

[4] = system: mouse hippocampal brain slices (LTP suppressed by etomidate); experiment: Electrophysiology in hippocampal slices - long term potentiation assay

T3 sequence (P31644 32-462): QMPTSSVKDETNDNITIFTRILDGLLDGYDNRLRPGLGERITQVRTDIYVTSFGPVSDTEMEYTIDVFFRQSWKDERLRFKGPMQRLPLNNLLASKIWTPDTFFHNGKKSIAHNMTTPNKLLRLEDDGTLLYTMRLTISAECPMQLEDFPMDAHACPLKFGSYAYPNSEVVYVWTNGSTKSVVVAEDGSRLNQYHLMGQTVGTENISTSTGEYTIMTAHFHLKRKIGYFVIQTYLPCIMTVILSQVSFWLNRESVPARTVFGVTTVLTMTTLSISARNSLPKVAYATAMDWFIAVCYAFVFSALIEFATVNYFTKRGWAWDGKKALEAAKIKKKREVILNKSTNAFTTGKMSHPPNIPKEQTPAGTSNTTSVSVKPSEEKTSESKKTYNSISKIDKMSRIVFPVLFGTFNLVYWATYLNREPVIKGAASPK
T3 sequence (P28472 26-473 partner): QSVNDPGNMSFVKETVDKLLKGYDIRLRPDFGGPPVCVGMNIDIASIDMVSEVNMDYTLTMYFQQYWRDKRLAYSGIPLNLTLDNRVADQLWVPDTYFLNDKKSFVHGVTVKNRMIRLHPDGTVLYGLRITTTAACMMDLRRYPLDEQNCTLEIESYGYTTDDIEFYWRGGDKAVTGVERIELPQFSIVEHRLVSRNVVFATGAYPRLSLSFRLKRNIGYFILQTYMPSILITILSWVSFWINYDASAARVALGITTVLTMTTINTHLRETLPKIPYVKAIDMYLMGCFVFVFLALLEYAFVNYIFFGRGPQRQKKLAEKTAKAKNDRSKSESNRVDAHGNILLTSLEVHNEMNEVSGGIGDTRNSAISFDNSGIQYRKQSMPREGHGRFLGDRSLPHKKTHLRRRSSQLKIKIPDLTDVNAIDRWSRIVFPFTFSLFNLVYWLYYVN
T3 sequence (P18507 40-475): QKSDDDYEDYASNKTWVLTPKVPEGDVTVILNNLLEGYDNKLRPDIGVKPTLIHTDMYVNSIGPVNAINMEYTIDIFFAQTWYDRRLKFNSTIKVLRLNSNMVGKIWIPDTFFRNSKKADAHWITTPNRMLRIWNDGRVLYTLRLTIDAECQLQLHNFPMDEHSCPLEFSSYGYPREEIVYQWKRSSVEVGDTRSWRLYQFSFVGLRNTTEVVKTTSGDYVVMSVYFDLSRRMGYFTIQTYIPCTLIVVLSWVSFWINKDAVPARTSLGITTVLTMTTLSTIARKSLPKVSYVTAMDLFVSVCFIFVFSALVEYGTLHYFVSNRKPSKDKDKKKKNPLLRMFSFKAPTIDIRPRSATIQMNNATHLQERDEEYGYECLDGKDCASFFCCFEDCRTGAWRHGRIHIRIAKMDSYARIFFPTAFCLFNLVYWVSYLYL
T2 sequence (P31644 32-462): as the sequence (P31644 32-462) above
T2 sequence (P28472 26-473 partner): as the sequence (P28472 26-473 partner) above
T2 sequence (P18507 40-475): as the sequence (P18507 40-475) above
T1 sequence (P31644 32-462): as the sequence (P31644 32-462) above
T1 sequence (P28472 26-473 partner): as the sequence (P28472 26-473 partner) above
T1 sequence (P18507 40-475): as the sequence (P18507 40-475) above

SMILES	Ki [1] [nM]	α5-GABAAR Relative Efficacy (to DMCM), Qpatch ([2]; Conc 0.1 μM)	α5-GABAAR Relative Efficacy (to DMCM), SyncroPatch [3]	α5-GABAAR Relative Efficacy (to DMCM), Qpatch ([2]; Conc 3 μM)	α5-GABAAR Relative Efficacy (to DMCM), Qpatch ([2]; Conc 0.3 μM)	magnitude of LTP (fEPSP slope as % of control fEPSPs prior to 4-TBS vs time) ([4]; etomidate 3 μM alone, n=17, FIG. 2A)	fEPSP slope at 50-60 min post-delivery of the 4-TBS ([4]; etomidate alone compared to control, FIG. 2B)
COc1nc(-c2cnc(OC3CNC3)nc2)ccc1NC(=O)c1c(-c2ccccc2)noc1C [Example 189, N-[6-[2-(Azetidin-3-yloxy)pyrimidin-5-yl]-2-methoxy-3-pyridyl]-5-methyl-3-phenyl-isoxazole-4-carboxamide]	0.7	−0.70	−0.72	–	–	–	–
CNCc1ccc(-c2ccc(NC(=O)c3c(-c4ccccc4)noc3C)c(OC)n2)cn1 [Example 190, N-[2-Methoxy-6-[6-(methylaminomethyl)-3-pyridyl]-3-pyridyl]-5-methyl-3-phenyl-isoxazole-4-carboxamide]	1.1	−0.59	−0.72	–	–	–	–
COc1nc(-c2nnc3n2CCNC3)ccc1NC(=O)c1c(-c2ccccc2)noc1C [Example 196, N-(2-Methoxy-6-(5,6,7,8-tetrahydro-[1,2,4]triazolo[4,3-a]pyrazin-3-yl)pyridin-3-yl)-5-methyl-3-phenylisoxazole-4-carboxamide dihydrochloride]	23.5	–	−0.68	−0.71	–	–	–
COc1nc(-c2ccc(CN)nc2)ccc1NC(=O)c1c(-c2ccccc2)noc1C.Cl [Example 199, N-[6-[6-(Aminomethyl)-3-pyridyl]-2-methoxy-3-pyridyl]-5-methyl-3-phenyl-isoxazole-4-carboxamide hydrochloride]	1.6	–	−0.93	–	−0.82	–	–
Cc1onc(-c2ccccc2)c1C(=O)Nc1ccc(-n2ccnc2)nc1OC(C)C [Example 206, N-(6-(1H-Imidazol-1-yl)-2-isopropoxypyridin-3-yl)-5-methyl-3-phenylisoxazole-4-carboxamide]	1.7	–	−1.03	–	−0.55	–	–
Cc1onc(-c2ccccc2)c1C(=O)Nc1ccc(-c2cnc(CN)nc2)nc1OC(C)C [Example 207, N-(6-(2-(Aminomethyl)pyrimidin-5-yl)-2-isopropoxypyridin-3-yl)-5-methyl-3-phenylisoxazole-4-carboxamide hydrochloride]	0.3	−0.56	−0.83	–	–	–	–
Cc1onc(-c2ccc(F)cc2)c1C(=O)Nc1ccc(-c2cnc3n2CCNC3)nc1OC(C)C.Cl [Example 208, 3-(4-Fluorophenyl)-N-(2-isopropoxy-6-(5,6,7,8-tetrahydroimidazo[1,2-a]pyrazin-3-yl)pyridin-3-yl)-5-methylisoxazole-4-carboxamide hydrochloride]	0.7	−0.38	−0.70	–	–	–	–
CCOC(=O)c1cncn1[C@H](C)c1ccccc1 [etomidate, reference compound]	–	–	–	–	–	reduced	significantly reduced fEPSP slope
